Results published in PMC6473159, “Potent Inhibition of Zika Virus Replication by Aurintricarboxylic Acid” (Frontiers in Microbiology, 2019).
Like-named read-outs stand apart in the source and are kept apart here.

What was measured:
[1] = Cell viability assay (CellTiter 96), Vero cells; assay type: cell-based, African green monkey; conditions: African green monkey; for CC50 at 36 h: 36 h post-treatment; for CC50 at 72 h: 72 h post-treatment
Experimental: (§1) Cell viability in Vero and A549 cells was measured using the CellTiter 96 Non-Radioactive Cell Proliferation assay (Promega) following the manufacturer’s instructions. […] Plates were incubated at 37°C in a 5% CO2 atmosphere for 36 or 72 h. Samples were treated with 15 μl of Dye Solution and incubated at 37°C in a 5% CO2 atmosphere for 4 h. Next, cells were treated with 100 μl of Solubilization Solution/Stop Mix and absorbance at 570 nm was measured using a Vmax kinetic microplate reader (Molecular Devices, Waltham, MA, United States). Viability of compound-treated cells was calculated as a percentage relative to values obtained with DMSO-treated cells. Non-linear regression curves and the median cytotoxic concentration (CC50) were calculated using GraphPad Prism software version 8.0.

[2] = Cell viability assay (CellTiter 96), A549 cells; assay type: cell-based, human; conditions: human; for CC50 at 36 h: 36 h post-treatment; for CC50 at 72 h: 72 h post-treatment
Experimental: as §1

[3] = system: ZIKV Paraiba/2015; assay: Microplaque reduction assay, ZIKV Paraiba/2015 in A549 cells, post-infection treatment; assay type: cell-based; conditions: for IC50: Zika virus, A549, 36 h; for selectivity ratio at 36 h: human, A549 cells infected with ZIKV Paraiba/2015, Paraiba/2015, A549 cells, post-treatment, read-out: SI (selective index, CC50/IC50)
[4] = system: ZIKV Paraiba/2015; assay: Microplaque reduction assay, ZIKV Paraiba/2015 in Vero cells, post-infection treatment; assay type: cell-based; conditions: for selectivity ratio at 36 h: African green monkey, Vero cells infected with ZIKV Paraiba/2015, Paraiba/2015, Vero cells, read-out: SI (selective index, CC50/IC50); for IC50: Zika virus, Vero
[5] = system: ZIKV French Polynesia/2013; assay: Microplaque reduction assay, ZIKV French Polynesia/2013 in Vero cells
[6] = system: Vero cells; assay: Cell viability assay (CellTiter 96), Vero cells; assay type: cell-based, African green monkey; conditions: 36 or 72 h post-treatment, up to highest concentration tested (1,000 μM)
Experimental: as §1

[7] = system: ZIKV Nigeria/1968; assay: Microplaque reduction assay, ZIKV Nigeria/1968 in Vero cells
[8] = system: A549 cells; assay: Cell viability assay (CellTiter 96), A549 cells; assay type: cell-based, human; conditions: 36 or 72 h post-treatment, up to highest concentration tested (1,000 μM)
Experimental: as §1

[9] = system: ZIKV Uganda/1947; assay: Microplaque reduction assay, ZIKV Uganda/1947 in Vero cells
[10] = system: ZIKV Paraiba/2015; assay: Microplaque reduction assay, pre-treatment of Vero cells before ZIKV Paraiba/2015 infection; assay type: cell-based; conditions: for IC50: Zika virus, Vero, fixed 36 h p.i.
[11] = system: ZIKV-induced CPE in Vero cells; assay: ZIKV-induced cytopathic effect (light microscope), Vero cells; assay type: cell-based, African green monkey; conditions: MOI 0.1, 48 h p.i., 25 μM and more clearly 250 μM
[12] = system: ZIKV Puerto Rico/2015; assay: Microplaque reduction assay, ZIKV Puerto Rico/2015 in Vero cells
[13] = system: caspase 3 and 7 activities; assay: Apoptosis assay (Caspase-Glo 3/7), ZIKV-infected A549 cells; conditions: 250 μM
[14] = system: ZIKV Paraiba/2015; assay: Virus growth kinetics, ZIKV Paraiba/2015 in Vero cells; assay type: cell-based, Zika virus
Experimental: (§2) At 12, 24, 48, and 72 h post-infection (h p.i.), tissue culture supernatants were collected and titrated on Vero cells by immunostaining as described previously ([Marquez-Jurado et al., 2018]).
(§3) Dotted line indicates the limit of detection (20 FFU/ml).

[15] = system: ZIKV Paraiba/2015; assay: Virus growth kinetics, ZIKV Paraiba/2015 in A549 cells; assay type: cell-based, Zika virus
Experimental: as §2, §3

[16] = system: caspase 3 and 7 activities; assay: Apoptosis assay (Caspase-Glo 3/7), ZIKV-infected Vero cells; conditions: 250 μM
[17] = system: ZIKV-induced CPE in A549 cells; assay: ZIKV-induced cytopathic effect (light microscope), A549 cells; assay type: cell-based, human; conditions: MOI 0.1, 48 h p.i., 25 μM and more clearly 250 μM
[18] = system: Vaccinia virus; conditions: 30 mg/kg/day, ref Smee et al., 2010; cited from earlier work
[19] = system: ZIKV; design: method as in Yang et al., 2018; conditions: ENV+ cells; ref Yang et al., 2018; cited from earlier work
[20] = system: ZIKV; design: method as in Yang et al., 2018; conditions: SNB-19 cells; ref Yang et al., 2018; cited from earlier work
[21] = system: ZIKV; design: method as in Kuivanen et al., 2017; conditions: human retinal pigment epithelial (RPE) cells; ref Kuivanen et al., 2017; cited from earlier work
[22] = system: ZIKV; design: method as in Bullard-Feibelman et al., 2017; conditions: Huh-7 cells; ref Bullard-Feibelman et al., 2017; cited from earlier work
[23] = system: ZIKV; design: method as in Bullard-Feibelman et al., 2017; conditions: Jar cells; ref Bullard-Feibelman et al., 2017; cited from earlier work
[24] = reading time not stated at the place (assay read at 36 and 72 h)

CCOC(=O)c1c(CSc2ccccc2)n(C)c2cc(Br)c(O)c(CN(C)C)c12 [ARB, Arbidol]
CC50 at 36 h [1]: 74.7 ± 1.09 µM | CC50 at 72 h [1]: 59.4 ± 1.1 µM | CC50 at 36 h [2]: 114.6 ± 1.08 µM | CC50 at 72 h [2]: 91 ± 1.08 µM | IC50 [3]: 51.9 ± 1.08 µM | selectivity ratio at 36 h [3]: 2.21 | selectivity ratio at 36 h ([4]; post-treatment, 36 h): 4.11 | IC50 ([4]; 36 h): 18.2 ± 1.16 µM

O=C(O)C1=CC(=C(c2ccc(O)c(C(=O)O)c2)c2ccc(O)c(C(=O)O)c2)C=CC1=O [ATA, aurintricarboxylic acid]
selectivity ratio at 48 h ([5]; African green monkey, Vero cells infected with ZIKV French Polynesia/2013): > 76.8 | IC50 ([5]; Zika virus, Vero, 48 h): 13.9 ± 1.01 µM | toxicity (cell viability) [6]: did not observe any toxicity | CC50 at 36 h [1]: > 1000 µM | CC50 at 72 h [1]: > 1000 µM | CC50 [1, 24]: > 1 mM | selectivity ratio at 60 h ([7]; African green monkey, Vero cells infected with ZIKV Nigeria/1968): > 62.6 | IC50 ([7]; Zika virus, Vero, 60 h): 16 ± 1.02 µM | toxicity (cell viability) [8]: did not observe any toxicity | CC50 at 36 h [2]: > 1000 µM | CC50 at 72 h [2]: > 1000 µM | CC50 [2, 24]: > 1 mM | IC50 [3]: 33.3 ± 1.13 µM | selectivity ratio at 36 h [3]: 26.3 | selectivity ratio at 48 h ([9]; African green monkey, Vero cells infected with ZIKV Uganda/1947): > 66.3 | IC50 ([9]; Zika virus, Vero, 48 h): 15.1 ± 1.19 µM | selectivity ratio at 12 h ([10]; African green monkey, pre-treatment 12 h, read-out: SI (selective index, CC50/IC50)): > 69.8 | selectivity ratio at 24 h ([10]; African green monkey, pre-treatment 24 h, read-out: SI (selective index, CC50/IC50)): > 75.9 | selectivity ratio at 48 h ([10]; African green monkey, pre-treatment 48 h, read-out: SI (selective index, CC50/IC50)): > 79.4 | selectivity ratio at 72 h ([10]; African green monkey, pre-treatment 72 h, read-out: SI (selective index, CC50/IC50)): > 95.2 | IC50 ([10]; pre-treatment 12 h before infection): 14.3 ± 1.06 µM | IC50 ([10]; pre-treatment 24 h before infection): 13.2 ± 1.05 µM | IC50 ([10]; pre-treatment 48 h before infection): 12.6 ± 1.02 µM | IC50 ([10]; pre-treatment 72 h before infection): 10.5 ± 1.05 µM | ZIKV-induced CPE [11]: able to prevent ZIKV-induced CPE | selectivity ratio at 48 h ([12]; African green monkey, Vero cells infected with ZIKV Puerto Rico/2015): > 57 | IC50 ([12]; Zika virus, Vero, 48 h): 17.6 ± 1.16 µM | caspase 3 and 7 induction as compared to mock-infected cells [13]: 1.7 fold | ZIKV replication (viral titer in supernatant) ([14]; MOI 0.1, 2.5 μM): partial viral inhibition | ZIKV replication (viral titer in supernatant) ([14]; MOI 0.1, 250 μM): completely inhibited | ZIKV replication (viral titer in supernatant) ([15]; MOI 0.1, 25 μM): partial viral inhibition | ZIKV replication (viral titer in supernatant) ([15]; MOI 0.1, 250 μM): completely inhibited | caspase 3 and 7 induction as compared to mock-infected cells [16]: 0.4 fold | ZIKV-induced CPE [17]: able to prevent ZIKV-induced CPE | selectivity ratio at 36 h ([4]; post-treatment, 36 h): 72.1 | SI (selective index, CC50/IC50) ([4]; Paraiba/2015, Vero cells, post-treatment, 36 h): >72.10 | SI (selective index), range in Vero cells ([4]; Vero cells, range over all ZIKV strains and pre-/post-treatment settings of this study): 56.98–95.24 | IC50 ([4]; 36 h): 13.9 ± 1.09 µM | protection of mice from a lethal challenge [18]: did not protect

CC[C@H]1CN2CCc3cc(OC)c(OC)cc3[C@@H]2C[C@@H]1C[C@H]1NCCc2cc(OC)c(OC)cc21 [emetine]
SI [19]: 2.88 | SI [20]: 9.84

Nc1ccn([C@@H]2O[C@H](CO)[C@@H](O)C2(F)F)c(=O)n1 [gemcitabine]
SI [21]: > 1,000

COC1=CC(c2cc3ccccc3[nH]2)=N/C1=C\c1[nH]c(C)cc1C [obatoclax]
SI [21]: 65

C[C@H]1C/C=C/Cc2cccc(O)c2C(=O)O[C@@H](C/C=C/NC(=O)C#Cc2ccccc2)C[C@H]1O [saliphenylhalamide]
SI [21]: > 200

CC(C)OC(=O)[C@H](C)N[P@](=O)(OC[C@H]1O[C@@H](n2ccc(=O)[nH]c2=O)[C@](C)(F)[C@@H]1O)Oc1ccccc1 [sofosbuvir]
SI [22]: > 52.63 | SI [23]: > 90.9
